The results in this text go back to ChEMBL document CHEMBL1156062, “Synthesis, SAR, and X-ray structure of tricyclic compounds as potent FBPase inhibitors” (Bioorg Med Chem Lett, 2009).

This assay addresses T1, Fructose-1,6-bisphosphatase 1 (Homo sapiens, UniProt P09467).
T1 sequence (P09467 whole entry): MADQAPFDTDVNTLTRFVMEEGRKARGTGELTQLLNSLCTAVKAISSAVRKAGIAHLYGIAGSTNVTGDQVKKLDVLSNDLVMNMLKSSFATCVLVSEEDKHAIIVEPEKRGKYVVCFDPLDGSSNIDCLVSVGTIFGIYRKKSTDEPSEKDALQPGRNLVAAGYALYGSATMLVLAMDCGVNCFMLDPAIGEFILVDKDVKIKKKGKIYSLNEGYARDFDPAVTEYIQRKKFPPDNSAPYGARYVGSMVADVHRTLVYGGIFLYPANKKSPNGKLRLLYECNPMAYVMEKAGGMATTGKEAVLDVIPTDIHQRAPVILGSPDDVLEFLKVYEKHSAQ
As to the kind of experiment: Inhibition of human liver FBPase.
Consider `Nc1nc2c(s1)Cc1ccc(P(=O)(O)O)cc1-2`, for which the IC50 amounted to 18.7 µM. For the compound `Nc1nc2c(s1)CCc1cc(OP(=O)(O)O)ccc1-2`, the IC50 is 112 µM. This IC50 is about 6-fold higher than that of the compound before. `Nc1nc2c(s1)CCCc1ccc(P(=O)(O)O)cc1-2` registered an IC50 of 0.169 µM. The result for `Nc1nc2c(s1)Cc1cc(OP(=O)(O)O)ccc1-2` reads 146 µM; that for `Nc1nc2c(s1)CCc1ccc(CP(=O)(O)O)cc1-2`, 0.84 µM; that for `Nc1nc2c(s1)Cc1cc(OCP(=O)(O)O)ccc1-2`, 112 µM. `Nc1nc2c(s1)CCc1cccc(OCP(=O)(O)O)c1-2` came in with an IC50 of 21.5 µM. This IC50 is about 5.2-fold lower than that of the compound before. Regarding `Nc1nc2c(s1)CCc1cc(P(=O)(O)O)ccc1-2`, 354 µM corresponded to half-maximal inhibition (IC50). Compound `Nc1nc2c(s1)CCc1ccc(P(=O)(O)O)cc1-2` gave an IC50 of 9.32 µM. Consider `Nc1nc2c(s1)CCc1cc(OCP(=O)(O)O)ccc1-2`, for which inhibition was half-maximal at 16.4 µM (IC50).

The compound `Nc1nc2c(s1)Cc1cc(P(=O)(O)O)ccc1-2` registered an IC50 of 91.9 µM. The result for `Nc1nc2c(s1)CCc1ccc(C(F)(F)P(=O)(O)O)cc1-2` reads 0.047 µM; that for `Nc1nc2c(s1)Cc1ccc(OP(=O)(O)O)cc1-2`, 307 µM; that for `Nc1nc2c(s1)CCCc1ccc(OP(=O)(O)O)cc1-2`, 0.022 µM.

As for `Nc1nc2c(s1)Cc1cccc(P(=O)(O)O)c1-2`, inhibition was half-maximal at 28.4 µM (IC50). `Nc1nc2c(s1)CCc1cccc(OP(=O)(O)O)c1-2` displayed a concentration for half-maximal inhibition (IC50) of 335 µM. Against the preceding compound, the IC50 is about 12-fold higher. As for `Nc1nc2c(s1)CCc1ccc(OCP(=O)(O)O)cc1-2`, the figure is 19.1 µM. The result for `Nc1nc2c(s1)Cc1ccc(OCP(=O)(O)O)cc1-2` reads 112 µM. As for `Nc1nc2c(s1)CCc1cccc(P(=O)(O)O)c1-2`, the figure is 354 µM; as for `Nc1nc2c(s1)Cc1cccc(OP(=O)(O)O)c1-2`, 0.07 µM; as for `Nc1nc2c(s1)CCCc1ccc(OCP(=O)(O)O)cc1-2`, 41.7 µM.
